System: Beet Armyworm (Spodoptera exigua)
Test: Bioassay on Beet Armyworm (BAW), 128-well diet tray assay
Type: in vivo
Conditions: percent mortality of second instar larvae, 50 μg/cm^2 on artificial diet, five to seven days, 25° C.; Table 3
Method: Certain molecules disclosed in this document were tested against BAW and CEW and CL using procedures described in the following examples. In the reporting of the results, the “BAW & CEW & CL Rating Table” was used (See Table Section).
Bioassays on BAW (Spodoptera exigua)
Bioassays on BAW were conducted using a 128-well diet tray assay. one to five second instar BAW larvae were placed in each well (3 mL) of the diet tray that had been previously filled with 1 mL of artificial diet to which 50 μg/cm^2 of the test compound (dissolved in 50 μL of 90:10 acetone-water mixture) had been applied (to each of eight wells) and then allowed to dry. Trays were covered with a clear self-adhesive cover, and held at 25° C., 14:10 light-dark for five to seven days. Percent mortality was recorded for the larvae in each well; activity in the eight wells was then averaged. The results are indicated in the table entitled “Table 3: Assay Results” (See Table Section).

Row | Compound | BAW Rating
1 | Cc1cc(/C=C/C(c2cc(Cl)cc(Cl)c2)C(F)(F)F)ccc1C(=O)NCc1ccc(Cl)nc1 (centres unmarked) [AC7] | A (50-100)
2 | Cc1cc(/C=C/C(c2cc(Cl)cc(Cl)c2)C(F)(F)F)ccc1C(=O)NCc1ccccc1F (centres unmarked) [AC9] | A (50-100)
3 | Cc1cc(/C=C/C(c2cc(Cl)cc(Cl)c2)C(F)(F)F)ccc1C(=O)NC1CSC1 (centres unmarked) [AC10] | A (50-100)
4 | Cc1cc(/C=C/C(c2cc(Cl)cc(Cl)c2)C(F)(F)F)ccc1C(=O)NCc1ccccc1 (centres unmarked) [AC11] | A (50-100)
5 | Cc1cc(/C=C/C(c2cc(Cl)cc(Cl)c2)C(F)(F)F)ccc1C(=O)NCc1ccccn1 (centres unmarked) [AC12] | A (50-100)
6 | Cc1cc(/C=C/C(c2cc(Cl)cc(Cl)c2)C(F)(F)F)ccc1C(=O)NC1CS(=O)(=O)C1 (centres unmarked) [AC13] | A (50-100)
7 | Cc1cc(/C=C/C(c2cc(Cl)cc(Cl)c2)C(F)(F)F)ccc1C(=O)NCc1cnc(Cl)s1 (centres unmarked) [AC15] | A (50-100)
8 | Cc1cc(/C=C/C(c2cc(Cl)cc(Cl)c2)C(F)(F)F)ccc1C(=O)NC(C)(C)c1ccccn1 (centres unmarked) [AC16] | A (50-100)
9 | Cc1cc(/C=C/C(c2cc(Cl)cc(Cl)c2)C(F)(F)F)ccc1C(=O)NNc1ccccc1F (centres unmarked) [AC17] | A (50-100)
10 | Cc1cc(/C=C/C(c2cc(Cl)cc(Cl)c2)C(F)(F)F)ccc1C(=O)NCc1ncccn1 (centres unmarked) [AC18] | A (50-100)
11 | Cc1cc(/C=C/C(c2cc(Cl)cc(Cl)c2)C(F)(F)F)ccc1C(=O)NCc1ccoc1 (centres unmarked) [AC20] | A (50-100)
12 | Cc1cc(/C=C/C(c2cc(Cl)c(Cl)c(Cl)c2)C(F)(F)F)ccc1C(=O)NCc1ccc(Cl)nc1 (centres unmarked) [AC22] | A (50-100)
13 | Cc1cc(/C=C/C(c2cc(Cl)c(Cl)c(Cl)c2)C(F)(F)F)ccc1C(=O)NC1CSC1 (centres unmarked) [AC23] | A (50-100)
14 | Cc1cc(/C=C/C(c2cc(Cl)c(Cl)c(Cl)c2)C(F)(F)F)ccc1C(=O)NCc1cnc(Cl)s1 (centres unmarked) [AC26] | A (50-100)
15 | Cc1cc(/C=C/C(c2cc(Cl)c(Cl)c(Cl)c2)C(F)(F)F)ccc1C(=O)NC(C)(C)c1ccccn1 (centres unmarked) [AC27] | A (50-100)
16 | O=C(NCc1ccc(Cl)nc1)c1ccc(/C=C/C(c2cc(Cl)c(Cl)c(Cl)c2)C(F)(F)F)cc1Cl (centres unmarked) [AC28] | A (50-100)
17 | O=C(NC1CSC1)c1ccc(/C=C/C(c2cc(Cl)c(Cl)c(Cl)c2)C(F)(F)F)cc1Cl (centres unmarked) [AC29] | A (50-100)
18 | O=C(NC1CS(=O)(=O)C1)c1ccc(/C=C/C(c2cc(Cl)c(Cl)c(Cl)c2)C(F)(F)F)cc1Cl (centres unmarked) [AC30] | A (50-100)
19 | O=C(NCc1ccc(Cl)nc1)c1ccc(/C=C/C(c2cc(Cl)c(Cl)c(Cl)c2)C(F)(F)F)cc1Br (centres unmarked) [AC31] | A (50-100)
20 | O=C(NC1CSC1)c1ccc(/C=C/C(c2cc(Cl)c(Cl)c(Cl)c2)C(F)(F)F)cc1Br (centres unmarked) [AC32] | A (50-100)
21 | O=C(NC1CS(=O)(=O)C1)c1ccc(/C=C/C(c2cc(Cl)c(Cl)c(Cl)c2)C(F)(F)F)cc1Br (centres unmarked) [AC33] | A (50-100)

Row | Compound | BAW Rating
22 | O=C(NC1CSC1)c1ccc(/C=C/C(c2cc(Cl)c(Cl)c(Cl)c2)C(F)(F)F)cc1C(F)(F)F (centres unmarked) [AC34] | A (50-100)
23 | O=C(NC1CS(=O)(=O)C1)c1ccc(/C=C/C(c2cc(Cl)c(Cl)c(Cl)c2)C(F)(F)F)cc1C(F)(F)F (centres unmarked) [AC35] | A (50-100)
24 | O=C(NCc1ccc(Cl)nc1)c1ccc(/C=C/C(c2cc(Cl)c(Cl)c(Cl)c2)C(F)(F)F)cc1C(F)(F)F (centres unmarked) [AC36] | A (50-100)
25 | Cc1cc(/C=C/C(c2ccc(Cl)c(Cl)c2)C(F)(F)F)ccc1C(=O)NCc1ccc(Cl)nc1 (centres unmarked) [AC37] | A (50-100)
26 | Cc1cc(/C=C/C(c2cc(Cl)c(F)c(Cl)c2)C(F)(F)F)ccc1C(=O)NCc1ccc(Cl)nc1 (centres unmarked) [AC38] | A (50-100)
27 | Cc1cc(/C=C/C(c2cc(Cl)cc(Cl)c2)C(F)(F)F)ccc1C(=O)NCc1cncnc1 (centres unmarked) [AC39, 4-((E)-3-(3,5-Dichlorophenyl)-4,4,4-trifluorobut-1-enyl)-2-methyl-N-((pyrimidin-5-yl)methyl)benzamide] | A (50-100)
28 | Cc1cc(/C=C/C(c2cc(Cl)cc(Cl)c2)C(F)(F)F)ccc1C(=O)NCC(=O)NC1CC1 (centres unmarked) [AC40] | A (50-100)
29 | Cc1cc(/C=C/C(c2cc(Cl)cc(Cl)c2)C(F)(F)F)ccc1C(=O)NCC(=O)NC1CSC1 (centres unmarked) [AC41] | A (50-100)
30 | Cc1cc(/C=C/C(c2cc(Cl)cc(Cl)c2)C(F)(F)F)ccc1C(=O)NCc1nc2ccccc2s1 (centres unmarked) [AC42] | A (50-100)
31 | Cc1cc(/C=C/C(c2cc(Cl)cc(Cl)c2)C(F)(F)F)ccc1C(=O)NCc1cnccn1 (centres unmarked) [AC43] | A (50-100)
32 | Cc1cc(/C=C/C(c2cc(Cl)cc(Cl)c2)C(F)(F)F)ccc1C(=O)NN(C)c1ccccc1F (centres unmarked) [AC45] | A (50-100)
33 | Cc1cc(/C=C/C(c2cc(Cl)cc(Cl)c2)C(F)(F)F)ccc1C(=O)NCc1ccc(Cl)cc1 (centres unmarked) [AC48] | A (50-100)
34 | O=C(NCc1ccc(Cl)nc1)c1ccc(/C=C/C(c2cc(Cl)cc(Cl)c2)C(F)(F)F)cc1F (centres unmarked) [AC49] | A (50-100)
35 | Cc1cc(/C=C/C(c2cc(Cl)cc(Cl)c2)C(F)(F)F)ccc1C(=O)NCc1nccn1C (centres unmarked) [AC50] | A (50-100)
36 | Cc1cc(/C=C/C(c2cc(Cl)cc(Cl)c2)C(F)(F)F)ccc1C(=O)NCC(=O)N(C)CC(F)(F)F (centres unmarked) [AC51] | A (50-100)
37 | Cc1cc(/C=C/C(c2cc(Cl)c(F)c(Cl)c2)C(F)(F)F)ccc1C(=O)NC1CCOCC1 (centres unmarked) [AC52] | A (50-100)
38 | Cc1cc(/C=C/C(c2cc(Cl)c(F)c(Cl)c2)C(F)(F)F)ccc1C(=O)NCc1ccc(Cl)cn1 (centres unmarked) [AC53] | A (50-100)
39 | Cc1cc(/C=C/C(c2cc(Cl)c(F)c(Cl)c2)C(F)(F)F)ccc1C(=O)NCc1ccnc(Cl)c1 (centres unmarked) [AC54] | A (50-100)
40 | CC(C)(C)OC(=O)CNC(=O)c1ccc(/C=C/C(c2cc(Cl)c(Cl)c(Cl)c2)C(F)(F)F)cc1Br (centres unmarked) [AC58] | A (50-100)
41 | Cc1cc(/C=C/C(c2cc(Cl)cc(Cl)c2)C(F)(F)F)ccc1C(=O)Nc1ccc(Cl)nc1 (centres unmarked) [AC59] | A (50-100)
42 | O=C(NC1CSC1)c1ccc(/C=C/C(c2cc(Cl)cc(Cl)c2)C(F)(F)F)cc1F (centres unmarked) [AC61] | A (50-100)

Row | Compound | BAW Rating
43 | O=C(CNC(=O)c1ccc(/C=C/C(c2cc(Cl)cc(Cl)c2)C(F)(F)F)cc1F)NCC(F)(F)F (centres unmarked) [AC62] | A (50-100)
44 | O=C(NCc1ccc(Cl)nc1)c1ccc(/C=C/C(c2cc(Cl)c(F)c(Cl)c2)C(F)(F)F)cc1Br (centres unmarked) [AC63] | A (50-100)
45 | O=C(CNC(=O)c1ccc(/C=C/C(c2cc(Cl)c(Cl)c(Cl)c2)C(F)(F)F)cc1Cl)NCC(F)(F)F (centres unmarked) [AC64, (E)-2-Chloro-N-(2-oxo-2-((2,2,2-trifluoroethyl)amino)ethyl)-4-(4,4,4-trifluoro-3-(3,4,5-trichlorophenyl)but-1-en-1-yl)benzamide] | A (50-100)
46 | O=C(NCc1ccc(Cl)nc1)c1ccc(/C=C/C(c2cc(Cl)c(F)c(Cl)c2)C(F)(F)F)cc1F (centres unmarked) [AC65] | A (50-100)
47 | O=C(CNC(=O)c1ccc(/C=C/C(c2cc(Cl)c(Cl)c(Cl)c2)C(F)(F)F)cc1Br)NCC(F)(F)F (centres unmarked) [AC66] | A (50-100)
48 | O=C(NC1CSC1)c1ccc(/C=C/C(c2cc(Cl)c(F)c(Cl)c2)C(F)(F)F)cc1F (centres unmarked) [AC67] | A (50-100)
49 | O=C(CNC(=O)c1ccc(/C=C/C(c2cc(Cl)c(F)c(Cl)c2)C(F)(F)F)cc1F)NCC(F)(F)F (centres unmarked) [AC68] | A (50-100)
50 | Cc1cc(/C=C/C(c2cc(Cl)c(F)c(Cl)c2)C(F)(F)F)ccc1C(=O)NCC(=O)NCC(F)(F)F (centres unmarked) [AC69] | A (50-100)
51 | COc1cc(/C=C/C(c2cc(Cl)c(F)c(Cl)c2)C(F)(F)F)ccc1C(=O)NC1CSC1 (centres unmarked) [AC71] | A (50-100)
52 | CCc1cc(/C=C/C(c2cc(Cl)c(F)c(Cl)c2)C(F)(F)F)ccc1C(=O)NCc1ccc(Cl)nc1 (centres unmarked) [AC72] | A (50-100)
53 | O=C(NCc1ccc(C(F)(F)F)nc1)c1ccc(/C=C/C(c2cc(Cl)c(Cl)c(Cl)c2)C(F)(F)F)cc1Br (centres unmarked) [AC75] | A (50-100)
54 | Cc1cc(/C=C/C(c2cc(Cl)c(F)c(Cl)c2)C(F)(F)F)ccc1C(=O)NCc1cc(Cl)ccn1 (centres unmarked) [AC77] | A (50-100)
55 | Cc1cc(/C=C/C(c2cc(Cl)c(Cl)c(Cl)c2)C(F)(F)F)ccc1C(=O)NCC(=O)NCC(F)(F)F (centres unmarked) [AC78] | A (50-100)
56 | O=C(CNC(=O)c1ccc(/C=C/C(c2cc(Cl)c(F)c(Cl)c2)C(F)(F)F)cc1Br)NCC(F)(F)F (centres unmarked) [AC79, (E)-2-Bromo-4-(3-(3,5-dichloro-4-fluorophenyl)-4,4,4-trifluorobut-1-en-1-yl)-N-(2-oxo-2-((2,2,2-trifluoroethyl)amino)ethyl)benzamide] | A (50-100)
57 | CCc1cc(/C=C/C(c2cc(Cl)c(F)c(Cl)c2)C(F)(F)F)ccc1C(=O)NCC(=O)NCC(F)(F)F (centres unmarked) [AC80] | A (50-100)
58 | Cc1cc(/C=C/C(c2cc(Cl)cc(Cl)c2)C(F)(F)F)ccc1C(=O)NCC(=O)NC1CS(=O)(=O)C1 (centres unmarked) [AC81] | A (50-100)
59 | O=C(NC1CS(=O)(=O)C1)c1ccc(/C=C/C(c2cc(Cl)cc(Cl)c2)C(F)(F)F)cc1F (centres unmarked) [AC83, (E)-4-(3-(3,5-Dichlorophenyl)-4,4,4-trifluorobut-1-en-1-yl)-N-(1,1-dioxidothietan-3-yl)-2-fluorobenzamide] | A (50-100)
60 | O=C(NC1CS(=O)(=O)C1)c1ccc(/C=C/C(c2cc(Cl)c(F)c(Cl)c2)C(F)(F)F)cc1F (centres unmarked) [AC84] | A (50-100)
61 | COc1cc(/C=C/C(c2cc(Cl)c(F)c(Cl)c2)C(F)(F)F)ccc1C(=O)NC1CS(=O)(=O)C1 (centres unmarked) [AC85] | A (50-100)
62 | CCc1cc(/C=C/C(c2cc(Cl)c(F)c(Cl)c2)C(F)(F)F)ccc1C(=O)NC1CS(=O)(=O)C1 (centres unmarked) [AC86] | A (50-100)
